Source: US10087178B2, “Substituted spiropyrido[1,2-a]pyrazine derivative and medicinal use thereof as HIV integrase inhibitor” (priority 2012, dated 2018)
Counter-ions that a name gives are not always drawn. Like-named read-outs stand apart in the source and are kept apart here.

System: HIV-1 NL4-3 strain
Assay: Evaluation of antiviral activity: acute infection system of MT-4 cell with HIV-1 NL4-3 strain
Assay type: cell-based
[1] = Human immunodeficiency virus 1, NL43, MT4, 120 h, MT-4 cells infected with HIV-1 NL4-3 strain (MOI 0.05), cultured 5 days, Cell Titer-Glo, read-out: antiviral activity (EC50)
[2] = Human immunodeficiency virus 1, NL43, MT4, 120 h, read-out: antiviral activity (EC50), MT-4 cells infected with HIV-1 NL4-3 strain (MOI 0.05), cultured 5 days, Cell Titer-Glo
[3] = Human immunodeficiency virus 1, NL43, MT4, 120 h, antiviral activity, MT-4 cells infected with HIV-1 NL4-3 (MOI 0.05), 5 days culture, Cell Titer-Glo luminescence, read-out: EC50

## CN1C[C@]2(C[C@@H](O)C2)n2cc(C(=O)NCc3cccc(Cl)c3F)c(=O)c(O)c2C1=O [Example S26, N-(3-chloro-2-fluorobenzyl)- trans-3,9′-dihydroxy-2′-methyl-1′,8′-dioxo-1′,2′,3′,8′-tetrahydrospiro[cyclobutane-1,4′-pyrido[1,2-a]pyrazine]-7′-carboxamide hydrochloride]
[1]
  EC50: 3.4 nM

## CCN1C(=O)c2c(O)c(=O)c(C(=O)NCc3cccc(Cl)c3F)cn2C[C@@]12C[C@@H]2CO [Example T44, (1S,2S)-N-(3-chloro-2-fluorobenzyl)-2′-ethyl-9′-hydroxy-2-(hydroxymethyl)-1′,8′-dioxo-1′,2′,4′,8′-tetrahydrospiro[cyclopropane-1,3′-pyrido[1,2-a]pyrazine]-7′-carboxamide hydrochloride]
[2]
  EC50: 5.1 nM

## CCN1C[C@@]2(C[C@H]2CO)n2cc(C(=O)NCc3cccc(Cl)c3F)c(=O)c(O)c2C1=O [Example T29, (1S,2R)-N-(3-chloro-2-fluorobenzyl)-2′-ethyl-9′-hydroxy-2-(hydroxymethyl)-1′,8′-dioxo-1′,2′,3′,8′-tetrahydrospiro[cyclopropane-1,4′-pyrido[1,2-a]pyrazine]-7′-carboxamide hydrochloride]
[2]
  EC50: 4.8 nM

## COC[C@H]1C[C@]2(CN(C)C(=O)c3c(O)c(=O)c(C(=O)NCc4cccc(Cl)c4F)cn32)C1 [Example 31, N-(3-chloro-2-fluorobenzyl)-9′-hydroxy-cis-3-(methoxymethyl)-2′-methyl-1′,8′-dioxo-1′,2′,3′,8′-tetrahydrospiro[cyclobutane-1,4′-pyrido[1,2-a]pyrazine]-7′-carboxamide hydrobromide]
MT-4 cells infected with HIV-1 NL4-3 strain (MOI 0.05), cultured 5 days, Cell Titer-Glo, hydrobromide, read-out: antiviral activity (EC50)
  EC50: 1.9 nM

## CCO[C@H]1C[C@@]2(CN(C)C(=O)c3c(O)c(=O)c(C(=O)NCc4cccc(Cl)c4F)cn32)C1 [Example S28, N-(3-chloro-2-fluorobenzyl)- trans-3-ethoxy-9′-hydroxy-2′-methyl-1′,8′-dioxo-1′,2′,3′,8′-tetrahydrospiro[cyclobutane-1,4′-pyrido[1,2-a]pyrazine]-7′-carboxamide hydrochloride]
[1]
  EC50: 3.6 nM

## CCOC[C@H]1C[C@@]12Cn1cc(C(=O)NCc3cccc(Cl)c3F)c(=O)c(O)c1C(=O)N2CC [Example T45, (1S,2S)-N-(3-chloro-2-fluorobenzyl)-2-(ethoxymethyl)-2′-ethyl-9′-hydroxy-1′,8′-dioxo-1′,2′,4′,8′-tetrahydrospiro[cyclopropane-1,3′-pyrido[1,2-a]pyrazine]-7′-carboxamide]
[1]
  EC50: 4.4 nM

## CC(=O)NC[C@H]1C[C@]2(CN(C(C)C)C(=O)c3c(O)c(=O)c(C(=O)NCc4ccc(F)cc4F)cn32)C1 [Example S38, cis-3-(acetamidomethyl)-N-(2,4-difluorobenzyl)-9′-hydroxy-2′-isopropyl-1′,8′-dioxo-1′,2′,3′,8′-tetrahydrospiro[cyclobutane-1,4′-pyrido[1,2-a]pyrazine]-7′-carboxamide hydrochloride]
[1]
  EC50: 50 nM

## CCN1C[C@]2(C[C@H](OC)C2)n2cc(C(=O)NCc3ccc(F)cc3F)c(=O)c(O)c2C1=O [Example S20, N-(2,4-difluorobenzyl)-2′-ethyl-9′-hydroxy-cis-3-methoxy-1′,8′-dioxo-1′,2′,3′,8′-tetrahydrospiro[cyclobutane-1,4′-pyrido[1,2-a]pyrazine]-7′-carboxamide hydrochloride]
[3]
  EC50: 3.5 nM

## CCN1C[C@@]2(C[C@@H]2COC)n2cc(C(=O)NCc3cccc(Cl)c3F)c(=O)c(O)c2C1=O [Example T19, (1S,2S)-N-(3-chloro-2-fluorobenzyl)-2′-ethyl-9′-hydroxy-2-(methoxymethyl)-1′,8′-dioxo-1′,2′,3′,8′-tetrahydrospiro[cyclopropane-1,4′-pyrido[1,2-a]pyrazine]-7′-carboxamide]
[1]
  EC50: 3.8 nM

## CCN1C[C@]2(C[C@@H](CO)C2)n2cc(C(=O)NCc3cccc(Cl)c3F)c(=O)c(O)c2C1=O [Example S44, N-(3-chloro-2-fluorobenzyl)-2′-ethyl-9′-hydroxy-trans-3-(hydroxymethyl)-1′,8′-dioxo-1′,2′,3′,8′-tetrahydrospiro[cyclobutane-1,4′-pyrido[1,2-a]pyrazine]-7′-carboxamide hydrochloride]
[1]
  EC50: 11 nM

## CCOc1cc(Cl)c(F)c(CNC(=O)c2cn3c(c(O)c2=O)C(=O)N(C)C[C@@]32C[C@@H]2COC)c1 [Example T25, (1S,2S)-N-(3-chloro-5-ethoxy-2-fluorobenzyl)-9′-hydroxy-2-(methoxymethyl)-2′-methyl-1′,8′-dioxo-1′,2′,3′,8′-tetrahydrospiro[cyclopropane-1,4′-pyrido[1,2-a]pyrazine]-7′-carboxamide hydrochloride]
[2]
  EC50: 7 nM

## COC[C@H]1C[C@@]12CN(C)C(=O)c1c(O)c(=O)c(C(=O)NCc3cc(N4CCCC4=O)cc(Cl)c3F)cn12 [Example T34, (1S,2S)-N-(3-chloro-2-fluoro-5-(2-oxopyrrolidin-1-yl)benzyl)-9′-hydroxy-2-(methoxymethyl)-2′-methyl-1′,8′-dioxo-1′,2′,3′,8′-tetrahydrospiro[cyclopropane-1,4′-pyrido[1,2-a]pyrazine]-7′-carboxamide]
[1]
  EC50: 23 nM

## CN1C[C@]2(C[C@H](O)C2)n2cc(C(=O)NCc3ccc(F)cc3F)c(=O)c(O)c2C1=O [Example S12, N-(2,4-difluorobenzyl)-cis-3,9′-dihydroxy-2′-methyl-1′,8′-dioxo-1′,2′,3′,8′-tetrahydrospiro[cyclobutane-1,4′-pyrido[1,2-a]pyrazine]-7′-carboxamide hydrobromide]
[3]
  EC50: 23 nM

## COC[C@@H]1C[C@@]12CN(C(C)C)C(=O)c1c(O)c(=O)c(C(=O)NCc3ccc(F)cc3F)cn12 [Example 16, (1S,2R)—N-(2,4-difluorobenzyl)-9′-hydroxy-2′-isopropyl-2-(methoxymethyl)-1′,8′-dioxo-1′,2′,3′,8′-tetrahydrospiro[cyclopropane-1,4′-pyrido[1,2-a]pyrazine]-7′-carboxamide]
[3]
  EC50: 6.1 nM

## CCN1C[C@@]2(C[C@@H]2CO)n2cc(C(=O)NCc3cccc(Cl)c3F)c(=O)c(O)c2C1=O [Example T18, (1S,2S)-N-(3-chloro-2-fluorobenzyl)-2′-ethyl-9′-hydroxy-2-(hydroxymethyl)-1′,8′-dioxo-1′,2′,3′,8′-tetrahydrospiro[cyclopropane-1,4′-pyrido[1,2-a]pyrazine]-7′-carboxamide hydrochloride]
[2]
  EC50: 10 nM

## CO[C@H]1C[C@]2(CN(C)C(=O)c3c(O)c(=O)c(C(=O)NCc4ccc(F)cc4F)cn32)C1 [Example S14, N-(2,4-difluorobenzyl)-9′-hydroxy-cis-3-methoxy-2′-methyl-1′,8′-dioxo-1′,2′,3′,8′-tetrahydrospiro[cyclobutane-1,4′-pyrido[1,2-a]pyrazine]-7′-carboxamide hydrochloride]
[3]
  EC50: 3.9 nM

## COC[C@H]1C[C@]2(CN(C(C)C)C(=O)c3c(O)c(=O)c(C(=O)NCc4ccc(F)cc4F)cn32)C1 [Example S23, N-(2,4-difluorobenzyl)-9′-hydroxy-2′-isopropyl-cis-3-(methoxymethyl)-1′,8′-dioxo-1′,2′,3′,8′-tetrahydrospiro[cyclobutane-1,4′-pyrido[1,2-a]pyrazine]-7′-carboxamide hydrochloride]
[1]
  EC50: 6.3 nM

## CCN1C[C@@]2(C[C@@H]2CO)n2cc(C(=O)NCc3ccc(F)cc3F)c(=O)c(O)c2C1=O [Example T1, (1S,2S)-N-(2,4-difluorobenzyl)-2′-ethyl-9′-hydroxy-2-(hydroxymethyl)-1′,8′-dioxo-1′,2′,3′,8′-tetrahydrospiro[cyclopropane-1,4′-pyrido[1,2-a]pyrazine]-7′-carboxamide hydrochloride]
[2]
  EC50: 18 nM
